Assay results taken from patent US10981926B2 (Janssen Pharmaceutica NV, priority 2016, dated 2021).
Like-named read-outs stand apart in the source and are kept apart here.

Key:
Type in all cases: cell-based
[1] = target: T1, wild-type Androgen Receptor (AR-wt) (Homo sapiens (Human), UniProt P10275); assay: LNCaP-AR-wt ANT reporter assay (antagonist mode); conditions: for Emax: read-out: LNCaP-AR-wt ANT MAX % Inh
[2] = target: T1, wild-type Androgen Receptor (AR-wt); assay: LNCaP-AR-wt AG reporter assay (agonist mode); conditions: for Emax: read-out: LNCaP-AR-wt AG MAX % Stim
[3] = target: T2, F876L mutant Androgen Receptor (AR-F876L) (Homo sapiens (Human), UniProt P10275, F877L); assay: LNCaP-AR-F876L ANT reporter assay (antagonist mode); conditions: for Emax: read-out: LNCaP-AR-F876L ANT MAX % Inh
[4] = target: T2, F876L mutant Androgen Receptor (AR-F876L); assay: LNCaP-AR-F876L AG reporter assay (agonist mode); conditions: for Emax: read-out: LNCaP-AR-F876L AG MAX % Stim
[5] = antagonist mode, maximum % inhibition of R1881 control response over tested concentration range
[6] = antagonist mode, pIC50 = −Log10(IC50 in Molar), read-out: LNCaP-AR-wt ANT pIC50 (converted)
[7] = agonist mode, maximum % stimulation over tested concentration range
[8] = agonist mode, pEC50 = −Log10(EC50 in Molar), read-out: LNCaP-AR-wt AG pEC50 (converted)
[9] = antagonist mode, pIC50 = −Log10(IC50 in Molar), read-out: LNCaP-AR-F876L ANT pIC50 (converted)
[10] = agonist mode, pEC50 = −Log10(EC50 in Molar), read-out: LNCaP-AR-F876L AG pEC50 (converted)
[11] = maximum % inhibition of R1881 control response over the tested concentration range
[12] = maximum % stimulation (agonist response) over the tested concentration range
[13] = antagonist mode, pIC50 = −Log10(IC50 in Molar)
[14] = agonist mode, pEC50 = −Log10(EC50 in Molar)

T2 sequence (P10275 whole entry F877L): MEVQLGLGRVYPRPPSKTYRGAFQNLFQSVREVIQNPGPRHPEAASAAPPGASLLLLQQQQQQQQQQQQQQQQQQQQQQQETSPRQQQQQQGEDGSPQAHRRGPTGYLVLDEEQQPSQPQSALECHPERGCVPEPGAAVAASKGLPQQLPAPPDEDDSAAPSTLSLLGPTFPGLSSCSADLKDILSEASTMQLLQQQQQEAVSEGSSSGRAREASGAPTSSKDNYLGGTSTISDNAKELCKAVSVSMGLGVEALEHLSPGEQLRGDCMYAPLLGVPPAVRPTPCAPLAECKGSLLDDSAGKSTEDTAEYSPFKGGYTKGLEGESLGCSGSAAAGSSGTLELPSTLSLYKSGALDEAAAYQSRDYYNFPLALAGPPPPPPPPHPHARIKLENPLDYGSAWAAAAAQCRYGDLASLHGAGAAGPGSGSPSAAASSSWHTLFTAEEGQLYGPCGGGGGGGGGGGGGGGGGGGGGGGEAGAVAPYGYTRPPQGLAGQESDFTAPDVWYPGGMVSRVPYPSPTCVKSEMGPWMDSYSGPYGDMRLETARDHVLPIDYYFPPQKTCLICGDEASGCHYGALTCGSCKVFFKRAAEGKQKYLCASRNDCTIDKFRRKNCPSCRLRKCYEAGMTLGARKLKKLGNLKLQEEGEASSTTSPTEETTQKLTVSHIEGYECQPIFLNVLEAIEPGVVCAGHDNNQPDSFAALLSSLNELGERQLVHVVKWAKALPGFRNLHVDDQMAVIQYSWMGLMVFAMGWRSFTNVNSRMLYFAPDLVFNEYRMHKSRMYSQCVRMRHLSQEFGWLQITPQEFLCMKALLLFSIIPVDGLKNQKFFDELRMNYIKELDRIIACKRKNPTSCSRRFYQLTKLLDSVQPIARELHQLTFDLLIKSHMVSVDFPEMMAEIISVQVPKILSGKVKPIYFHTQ
T1 sequence (P10275 whole entry): as the sequence (P10275 whole entry F877L) above, with L877F counted along it

| Compound | Emax [1, 5] | IC50 [1, 6] | Emax [2, 7] | EC50 [2, 8] | Emax [3, 5] | IC50 [3, 9] | Emax [4, 7] | EC50 [4, 10] | Emax [1, 11] | Emax [2, 12] | Emax [3, 11] | Emax [4, 12] | other results |
| --- | --- | --- | --- | --- | --- | --- | --- | --- | --- | --- | --- | --- | --- |
| C=CCN1CCC(Oc2ccc(N3C(=S)N(c4cnc(C#N)c(C)c4)C(=O)C34CCC4)cn2)CC1 [Cpd 99, 5-[8-[6-[(1-allyl-4-piperidyl)oxy]-3-pyridyl]-5-oxo-7-thioxo-6,8-diazaspiro[3.4]octan-6-yl]-3-methyl-pyridine-2-carbonitrile] | – | 174 nM | – | > 15.1 µM | – | 72.4 nM | – | > 15.1 µM | 101% | 0.5% | 99.7% | 0.2% | – |
| CCNC(=O)n1cc(-c2ccc(N3C(=S)N(c4cnc(C#N)c(C)c4)C(=O)C34CCC4)cc2)cn1 [Cpd 10, (4-{4-[7-(6-cyano-5-methyl(3-pyridyl))-8-oxo-6-thioxo-5,7-diazaspiro[3.4]oct-5-yl]phenyl}pyrazolyl)-N-ethylcarboxamide] | – | 339 nM | – | > 15.1 µM | – | 275 nM | – | > 15.1 µM | 102% | 0.5% | 100% | 0.9% | – |
| CC(=O)N1CCC(Cn2ncc3cc(N4C(=S)N(c5cnc(C#N)c(C(F)(F)F)c5)C(=O)C45CCC5)ccc32)CC1 [Cpd 124, 5-[8-[1-[(1-acetyl-4-piperidyl)methyl]indazol-5-yl]-5-oxo-7-thioxo-6,8-diazaspiro[3.4]octan-6-yl]-3-(trifluoromethyl)pyridine-2-carbonitrile] | – | 115 nM | – | > 15.1 µM | – | 39.8 nM | – | > 15.1 µM | 103% | 0.3% | 103% | 0.5% | – |
| CC(C)(C)OC(=O)N1CC(F)(F)CC1COc1ccc(N2C(=S)N(c3cnc(C#N)c(C(F)(F)F)c3)C(=O)C23CCC3)cc1 (centres unmarked) [Cpd 56, tert-butyl 2-[[4-[6-[6-cyano-5-(trifluoromethyl)-3-pyridyl]-5-oxo-7-thioxo-6,8-diazaspiro[3.4]octan-8-yl]phenoxy]methyl]-4,4-difluoro-pyrrolidine-1-carboxylate] | – | 631 nM | – | > 15.1 µM | – | 676 nM | – | > 15.1 µM | 84.5% | 0.4% | 85.2% | 0.1% | – |
| N#Cc1ncc(N2C(=O)C3(CCC3)N(c3ccc4[nH]ncc4c3)C2=S)cc1Cl [Cpd 155, 3-chloro-5-[8-(1H-indazol-5-yl)-5-oxo-7-thioxo-6,8-diazaspiro[3.4]octan-6-yl]pyridine-2-carbonitrile] | – | 302 nM | – | > 15.1 µM | – | 219 nM | – | > 15.1 µM | 97.4% | 1.1% | 98% | 2.6% | – |
| Cc1cc(N2C(=O)C3(CCC3)N(c3ccc(-c4cn[nH]c4)cc3)C2=S)cnc1C#N [Cpd 3, 3-methyl-5-[5-oxo-8-[4-(1H-pyrazol-4-yl)phenyl]-7-thioxo-6,8-diazaspiro[3.4]octan-6-yl]pyridine-2-carbonitrile] | – | 407 nM | – | > 15.1 µM | – | 324 nM | – | > 15.1 µM | 97.8% | 2.2% | 98.9% | 1.8% | – |
| CN(C)C1(c2ccc(N3C(=S)N(c4cnc(C#N)c(C(F)(F)F)c4)C(=O)C34CCC4)cc2)COC1 [Cpd 197, 5-(5-(4-(3-(dimethylamino)oxetan-3-yl)phenyl)-8-oxo-6-thioxo-5,7-diazaspiro[3.4]octan-7-yl)-3-(trifluoromethyl)picolinonitrile] | – | – | – | – | – | – | – | – | – | – | – | – | IC50 ([1]; LNCaP-AR-wt ANT pIC50): 1070 nM; Emax [1]: 99.3%; EC50 [2]: > 15.1 µM; Emax [2]: 0.1%; IC50 ([3]; LNCaP-AR-F876L ANT pIC50): 447 nM; Emax [3]: 101%; EC50 [4]: > 15.1 µM; Emax [4]: 0.3% |
| CC(C)(C)OC(=O)N1C2CCC1C(F)C(Oc1ccc(N3C(=S)N(c4cnc(C#N)c(C(F)(F)F)c4)C(=O)C34CCC4)cc1)C2 (centres unmarked) [Cpd 85, tert-butyl 3-[4-[6-[6-cyano-5-(trifluoromethyl)-3-pyridyl]-5-oxo-7-thioxo-6,8-diazaspiro[3.4]octan-8-yl]phenoxy]-4-fluoro-8-azabicyclo[3.2.1]octane-8-carboxylate] | – | – | – | – | – | – | – | – | 88.3% | -0.1% | 85.8% | 0.6% | LNCaP-AR-wt ANT pIC50 [1, 13]: 6.46; LNCaP-AR-wt AG pEC50 [2, 14]: <4.82; LNCaP-AR-F876L ANT pIC50 [3, 13]: 6.37; LNCaP-AR-F876L AG pEC50 [4, 14]: <4.82 |

The next lines start with results.

| Emax [1, 5] | IC50 [1, 6] | Emax [2, 7] | EC50 [2, 8] | Emax [3, 5] | IC50 [3, 9] | Emax [4, 7] | EC50 [4, 10] | Emax [1, 11] | Emax [2, 12] | Emax [3, 11] | Emax [4, 12] | Compound | other results |
| --- | --- | --- | --- | --- | --- | --- | --- | --- | --- | --- | --- | --- | --- |
| 103% | 155 nM | -0.3% | > 15.1 µM | 103% | 186 nM | 0.4% | > 15.1 µM | – | – | – | – | CN1CCC(Oc2ccc(N3C(=S)N(c4cnc(C#N)c(C(F)(F)F)c4)C(=O)C34CCC4)cn2)CC12CCC2 (racemic) [Cpd 194, (R,S)-5-[8-[6-[(9-methyl-9-azaspiro[3.5]nonan-6-yl)oxy]-3-pyridyl]-5-oxo-7-thioxo-6,8-diazaspiro[3.4]octan-6-yl]-3-(trifluoromethyl)pyridine-2-carbonitrile] | – |
| 102% | 2450 nM | 0.1% | > 15.1 µM | 99.7% | 1950 nM | 0% | > 15.1 µM | – | – | – | – | N#Cc1ncc(N2C(=O)C3(CCC3)N(c3ccc(C(=O)NC[C@H]4CCCNC4)c(F)c3)C2=S)cc1C(F)(F)F [Cpd 204, 4-[6-[6-cyano-5-(trifluoromethyl)-3-pyridyl]-5-oxo-7-thioxo-6,8-diazaspiro[3.4]octan-8-yl]-2-fluoro-N-[[(3S)-3-piperidyl]methyl]benzamide] | – |
| 101% | 229 nM | 0.1% | > 15.1 µM | 101% | 191 nM | 0.4% | > 15.1 µM | – | – | – | – | CN1CCC12CC(Oc1ccc(N3C(=S)N(c4cnc(C#N)c(C(F)(F)F)c4)C(=O)C34CCC4)cn1)C2 (centres unmarked) [Cpd 193, 5-[8-[6-[(3-methyl-3-azaspiro[3.3]heptan-6-yl)oxy]-3-pyridyl]-5-oxo-7-thioxo-6,8-diazaspiro[3.4]octan-6-yl]-3-(trifluoromethyl)pyridine-2-carbonitrile] | – |
| 0% | 1000 nM | -0.1% | > 15.1 µM | 99.4% | 1200 nM | 0.2% | > 15.1 µM | – | – | – | – | Cc1cc(N2C(=O)C3(CCC3)N(c3cnc(OC4CCN(C)CC4)nc3)C2=S)cnc1C#N [Cpd 247, 3-Methyl-5-[8-[2-[(1-methyl-4-piperidyl)oxy]pyrimidin-5-yl]-5-oxo-7-thioxo-6,8-diazaspiro[3,4]octan-6-yl]pyridine-2-carbonitrile] | – |
| 102% | 708 nM | 0.2% | > 15.1 µM | 102% | 427 nM | 0.8% | > 15.1 µM | – | – | – | – | CN1CCC[C@@H](CNC(=O)c2ccc(N3C(=S)N(c4cnc(C#N)c(C(F)(F)F)c4)C(=O)C34CCC4)cc2)C1 [Cpd 185, 4-[6-[6-cyano-5-(trifluoromethyl)-3-pyridyl]-5-oxo-7-thioxo-6,8-diazaspiro[3.4]octan-8-yl]-N-[[(3S)-1-methyl-3-piperidyl]methyl]benzamide] | – |
| 102% | 550 nM | 0.2% | > 15.1 µM | 100% | 282 nM | 0.1% | > 15.1 µM | – | – | – | – | COc1cc(N2C(=O)C3(CCC3)N(c3ccc4c(cnn4C4CCN(C)CC4)c3)C2=S)cnc1C#N [Cpd 213, 3-methoxy-5-[8-[1-(1-methyl-4-piperidyl)indazol-5-yl]-5-oxo-7-thioxo-6,8-diazaspiro[3.4]octan-6-yl]pyridine-2-carbonitrile] | – |
| 99.3% | 479 nM | 0% | > 15.1 µM | 102% | 151 nM | 0.5% | > 15.1 µM | – | – | – | – | Cc1nc2cc(N3C(=S)N(c4cnc(C#N)c(C(F)(F)F)c4)C(=O)C34CCC4)ccc2[nH]1 [Cpd 245, 5-[8-(2-methyl-1H-benzimidazol-5-yl)-5-oxo-7-thioxo-6,8-diazaspiro[3.4]octan-6-yl]-3-(trifluoromethyl)pyridine-2-carbonitrile] | – |
| – | 95.5 nM | – | > 15.1 µM | – | 145 nM | – | > 15.1 µM | 101% | 0% | 99.3% | 0.8% | Cn1ncc2cc(N3C(=S)N(c4cnc(C#N)c(Cl)c4)C(=O)C34CCC4)ccc21 [Cpd 168, 3-chloro-5-[8-(1-methylindazol-5-yl)-5-oxo-7-thioxo-6,8-diazaspiro[3.4]octan-6-yl]pyridine-2-carbonitrile] | – |
